Several values for one entry are separate records, joined by “and”; a condition that tells them apart may be missing. Identical values can stand only once.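 These data come from cells grown in 96-well plates and exposed to compound for 48 hours at five concentrations. GI50 is the concentration that inhibits growth by half.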 Activity calls are given as the source filed them. No stated cut-off is given here; in the data, active = GI50 up to about 1.1 µM and inactive = higher.

Common to all, as to test: NCI tumour cell line growth inhibition, 48 h
For test [1], the system named is KM12.
Test [2] concerns MOLT-4.
Test [3] deals with Hs-578T.
For test [4], the system named is RPMI-8226.
Test [5] concerns ACHN.
For test [6], the system named is A549.
The subject of test [7] is SNB-19.
For test [8], the system named is EKVX.
Test [9] deals with COLO 205.
The subject of test [10] is MDA-N.
Test [11] deals with UO-31.
Test [12] has as its system NCI-H522.
Test [13] deals with UACC-257.
Test [14] deals with U-251.
For test [15], the system named is HCT-116.
The test system of test [16] is OVCAR-5.
Test [17] concerns HOP-92.
Test [18] deals with PC-3.
The subject of test [19] is T47D.
Test [20] has as its system MCF7.

`N#C[C@H](C(=O)c1ccccc1F)c1nc2ccccc2s1`: the GI50 in [1] is 11 µM (inactive); in [2], 26.5 µM (inactive); in test [3], 15.1 µM (inactive); in test [4], 22.5 µM (inactive); in test [5] it was 49.1 µM (inactive); in [6], 29 µM (inactive). The GI50 in test [7] was 27.5 µM (inactive); in [8] it was 28 µM (inactive); in test [9], 23.7 µM (inactive); in test [10], 38.3 µM (inactive); in [11], 46.8 µM (inactive); in [12], 15.5 µM (inactive). Further, the GI50 is 66.1 µM (inactive) in [13]; 33.3 µM (inactive) in test [14]; 23.5 µM (inactive) in test [15]; 31 µM (inactive) in test [16]; 48.1 µM (inactive) in test [17]; 24.2 µM (inactive) in [18]. In test [19], the GI50 is 34.8 µM (inactive).
Turning to `O=C1Nc2ccc(Br)cc2/C1=N/Nc1ccccc1[N+](=O)[O-]`, the GI50 in test [1] was 8.2 µM (inactive); in [2] it was 42.9 µM (inactive); in test [3] it was 16.1 µM (inactive); in test [4] it was 16.4 µM (inactive); in test [5] it was 3.83 µM (inactive); in test [6], 9.29 µM (inactive). Moreover, the GI50 in test [7] is 28.6 µM (inactive); in test [8] it was 6.31 µM (inactive); in [9] it was 12.1 µM (inactive); in test [10] it was 17 µM (inactive); in test [11] it was 16.9 µM (inactive); in [12], 15.5 µM (inactive). The GI50 in test [13] is 13.3 µM (inactive); in [20] it was 20.8 µM (inactive); in test [14], 35.4 µM (inactive); in test [15] it was 32.4 µM (inactive); in test [16], 12.7 µM (inactive); in test [18], 15.8 µM (inactive). Moreover, the GI50 in test [19] was 29.9 µM (inactive).
`COc1nc2sc3c(c2c(=O)n1CCCSSCCCn1c(OC)nc2sc4c(c2c1=O)CCCC4)CCCC3`: the GI50 in test [1] was > 100 µM (inactive); in [2] it was > 100 µM (inactive); in [4] it was 6.92 µM (inactive); in [5], > 100 µM (inactive); in test [6], > 100 µM (inactive); in test [7], > 100 µM (inactive). Moreover, the GI50 in [8], in test [9], in test [10], in test [11], in [12] and in test [13] was > 100 µM (inactive) throughout. Also, the GI50 in [20], in test [14], in [15], in test [16], in [17] and in test [18] was > 100 µM (inactive) throughout. Further, the GI50 in test [19] is > 100 µM (inactive).
With `COC(=O)Cc1c(-c2c(CC(=O)OC)c3ccccc3n2C2OC(COC3OC(COC(C)=O)C(OC(C)=O)C(OC(C)=O)C3OC(C)=O)C(O)C(O)C2O)[nH]c2ccccc12` (stereo not drawn), the GI50 is > 100 µM (inactive) in [2]; > 100 µM (inactive) in test [4]; > 100 µM (inactive) in [5]; > 100 µM (inactive) in [6]; 22.8 µM (inactive) in test [7]; > 100 µM (inactive) in test [8]. For the same molecule, the GI50 in test [9] was > 100 µM (inactive); in [10] it was > 100 µM (inactive); in [11] it was > 100 µM (inactive); in test [13], > 100 µM (inactive); in test [20] it was > 100 µM (inactive); in test [14] it was 44.3 µM (inactive). For the same molecule, the GI50 was > 100 µM (inactive) in test [15]; > 100 µM (inactive) in [16]; 27.9 µM (inactive) in test [17]; > 100 µM (inactive) in [18]; > 100 µM (inactive) in test [19].
Take `CN(C)C12C=CC=CC3=C(c4ccccc4)C(c4ccccc4)=C(c4ccccc4)C31c1ccccc1C2` (stereo not drawn): the GI50 in test [1], in [2], in [3], in test [4], in test [5] and in test [6] was > 100 µM (inactive) in each case. The GI50 in test [7], in [8], in test [9], in [10], in [11] and in test [12] was > 100 µM (inactive) in each case. For the same molecule, the GI50 in test [13], in test [20], in [14], in [15], in [16] and in test [18] was > 100 µM (inactive) in each case. Also, the GI50 in test [19] was > 100 µM (inactive).
On to `COc1ccc(/N=C2\C(=N/c3ccc(OC)cc3)N(c3ccc(N(C)C)cc3)C(=S)N2c2ccc(OC)cc2)cc1`, for which the GI50 is > 100 µM (inactive) in [1]; 0.0329 µM (active) in test [2]; 0.0532 µM (active) in [4]; > 100 µM (inactive) in test [5]; > 100 µM (inactive) in test [6]; > 100 µM (inactive) in [7]. Also, the GI50 in test [8] was > 100 µM (inactive); in test [9], > 100 µM (inactive); in test [10] it was > 100 µM (inactive); in test [11] it was 3.81 µM (inactive); in [12], > 100 µM (inactive); in test [13] it was > 38 µM (inactive). Also, the GI50 in [20], in test [15], in test [16], in test [17], in test [18] and in [19] was > 100 µM (inactive) each time.
Regarding `CCOC(=O)/C=C(/C(=O)OCC)n1cc(Cl)c(=O)n(CC(=O)OCC)c1=O`, the GI50 in test [1] was > 25 µM (inactive); in test [2] it was 1.15 µM (inactive); in test [4] it was 2.47 µM (inactive); in [5], 3.4 µM (inactive); in test [6], 6.41 µM (inactive); in test [7] it was > 25 µM (inactive). For the same molecule, the GI50 in test [8] was 5.27 µM (inactive); in [9], 0.787 µM (active); in test [10], 5.81 µM (inactive); in test [12], 1.45 µM (inactive); in test [13], 4.94 µM (inactive); in test [20] it was 22.9 µM (inactive). The GI50 in test [14] was 5.83 µM (inactive); in [15], 4.97 µM (inactive); in [16], 4.52 µM (inactive); in [17], 5.15 µM (inactive); in test [18], 4.76 µM (inactive); in [19], 4.81 µM (inactive).
On to `COc1ccc(OC)c(/C=C/[N+](=O)[O-])c1`, for which the GI50 in test [3] is 4 µM (inactive); in test [4] it was 1.39 µM (inactive) and 845 nM (active); in test [5], 1.82 µM (inactive) and 2.21 µM (inactive); in [6], 3.24 µM (inactive) and 5.79 µM (inactive); in test [7], 3.44 µM (inactive) and 4.23 µM (inactive); in test [9], 2.04 µM (inactive) and 3.15 µM (inactive). The GI50 was 3.16 µM (inactive) in test [10]; 1.74 µM (inactive) and 2.77 µM (inactive) in test [11]; 1.63 µM (inactive) and 1.16 µM (inactive) in test [12]; 4.1 µM (inactive) and 3.92 µM (inactive) in test [13]; 2.32 µM (inactive) in test [20]; 2.56 µM (inactive) and 3.76 µM (inactive) in test [14]. Besides, the GI50 in test [15] was 1.85 µM (inactive) and 3.13 µM (inactive); in [17] it was 4.35 µM (inactive) and 3.05 µM (inactive); in [19], 3.01 µM (inactive).
With `Cn1c(C(O)C2(c3cccnc3)SCCCS2)cc2ccccc21` (stereo not drawn), the GI50 was 71.4 µM (inactive) in test [1]; 38.5 µM (inactive) in test [4]; > 100 µM (inactive) in [5]; > 100 µM (inactive) in test [6]; > 100 µM (inactive) in test [7]; 72.3 µM (inactive) in test [8]. The GI50 in test [9] is > 100 µM (inactive); in test [10], > 100 µM (inactive); in test [11] it was 37.2 µM (inactive); in [13], 53.3 µM (inactive); in test [20] it was 59.2 µM (inactive); in [14], > 100 µM (inactive). For the same molecule, the GI50 in test [15] was > 100 µM (inactive); in test [16], > 100 µM (inactive); in test [17] it was > 100 µM (inactive); in [18] it was 66.1 µM (inactive); in [19] it was 51.1 µM (inactive).
Consider `O=C(NCCO)c1c(O)c2ccccc2[nH]c1=O`, for which the GI50 in test [1], in test [2], in test [3], in test [4], in test [5] and in test [6] was > 100 µM (inactive) throughout. In addition, the GI50 in test [7] is > 100 µM (inactive); in [8] it was 69.5 µM (inactive); in [9], > 100 µM (inactive); in [10], > 100 µM (inactive); in [11] it was 83.6 µM (inactive); in test [12], > 100 µM (inactive). Moreover, the GI50 in test [13], in test [20], in [14], in test [15], in test [16] and in test [17] was > 100 µM (inactive) each time. Besides, the GI50 in [18] is > 100 µM (inactive).
Take `CC(/C=C/c1ccccc1)=N\NC(N)=S`: the GI50 is 28.3 µM (inactive) in test [1]; 24.4 µM (inactive) in [2]; 33.7 µM (inactive) in test [4]; 38 µM (inactive) in test [5]; 47.5 µM (inactive) in [6]; 24 µM (inactive) in test [7]. Further, the GI50 in test [8] was 17.7 µM (inactive); in test [9], 20.5 µM (inactive); in test [10] it was 29.6 µM (inactive); in test [11], 32.1 µM (inactive); in test [13], 47.9 µM (inactive); in test [20], 33 µM (inactive). For the same molecule, the GI50 is 40.5 µM (inactive) in [14]; 35.7 µM (inactive) in test [15]; 58.5 µM (inactive) in test [16]; > 100 µM (inactive) in [17]; 90.8 µM (inactive) in [18]; 11.8 µM (inactive) in [19].

For the origin of these results see ChEMBL document CHEMBL1201862, “PubChem BioAssay data set” (2004).
